Assays:
Format in all cases: cell-based, human
T47D cells [1] = test: γH2AX immunostaining (DNA damage) in T47D cells; details: T47D, 24 h; E2 10 or 100 nM, BP3 1 or 5 μM, PP 1 or 5 μM; vs control
Protocol: Immunostaining: Cells were grown in clearing media for 48 h and plated on 20 mm coverslip in 12 well plates with a density of 2×10^5 cells/well. […] Cells were washed with 1×PBS, blocked in 2% BSA/PBS with 0.1% Triton-X 100 for 1 hr at room temperature (RT), incubated overnight with γH2AX antibody (Cell Signaling #9718 S) or ERα antibody (Santa Cruz Biotechnology #sc-8002) at 4° C. and 1 hour with secondary antibody. S9.6: Cells were fixed in ice-cold 100% methanol for 10 min at −20° C., permeabilized in 100% acetone for 1 min at RT, blocked for 30 min in saline sodium citrate pH 7 (SSC, 4×), 3% BSA, 0.1% Triton-X and incubated with S9.6 (Kerafast #ENH001) 2 hr at RT followed by 1 h with secondary antibody. If indicated, slides were treated with RNase H (NEB #M0297L) for 4 hr at 37° C. prior to incubation with primary antibody. Stained cells were mounted with Vectashield mounting medium containing DAPI (Vector Laboratories #H-1200). Slides were imaged at 60× (immersion oil) with Nikon A1 Spectral Confocal microscope. Analysis of γH2AX and S9.6 intensity per nucleus or foci per nucleus was calculated using Nikon analysis software, where DAPI was used as a mask for the nucleus.

T47D cells [2] = test: 53BP1 immunostaining in T47D cells; details: E2 10-100 nM, BP3 1-5 μM, PP 1-5 μM
MCF-7 cells = test: 53BP1 immunostaining in MCF-7 cells; details: E2 10-100 nM, BP3 1-5 μM, PP 1-5 μM
TFF1 = test: RT-qPCR of estrogen-responsive gene TFF1 in T47D cells; details: T47D; for expression of TFF1 vs control: 5 μM
Protocol: RT-qPCR: RNA from T47D cells, MCF-7 Cells or flash-frozen 4th mammary gland was isolated with TRIzol (Thermofisher Scientific #15596018) and Direct-zol RNA MiniPrep Plus (Zymo Research #R2072). cDNA was prepared with Protoscript II First Strand cDNA Synthesis Kit (New England Biolabs #E6560S) and qPCR for TFF1, progesterone receptor (PGR) and Amphiregulin (AREG) was performed on CFX96 Real-Time System thermocycler (Bio-Rad) using primers in Table 1.

[3] = test system: parental 76N-tert cell line; test: S9.6 immunostaining (R-loops) in parental 76N-tert cells without ERα; details: no ERα
Protocol: Generation of 76N-Tert-ESR1 cells: The 76N-Tert cell line, a human mammary epithelial cell line immortalized with expression of human telomerase reverse transcriptase (TERT) was provided (35). These cells were grown in F-media (250 mL DMEM (-pyruvate) (Gibco #11965-092), 250 mL Ham's F12 (Gibco #11765-054), 5% FBS, 250 ng/mL hydrocortisone (Sigma #H4001), 10 ng/mL human epidermal growth factor (Tonbo Biosciences #21-8356-U100), 8.6 ng/mL cholera toxin vibrio (Millipore Sigma #227035), 1 μg/mL human insulin solution, and 1× antibiotic-antimycotic and passaged every 2-3 days.
Immunostaining: Cells were grown in clearing media for 48 h and plated on 20 mm coverslip in 12 well plates with a density of 2×10^5 cells/well. After 24 h of growth, cells were treated with 10 nM E2, 1 or 5 μM BP3, and 1 or 5 μM PP with or without 1 μM fulvestrant. γH2AX/ERα: Cells were fixed in ice-cold methanol (100%) for 10 mins and quenched with 0.1 M Glycine for 15 mins. Cells were washed with 1×PBS, blocked in 2% BSA/PBS with 0.1% Triton-X 100 for 1 hr at room temperature (RT), incubated overnight with γH2AX antibody (Cell Signaling #9718 S) or ERα antibody (Santa Cruz Biotechnology #sc-8002) at 4° C. and 1 hour with secondary antibody. S9.6: Cells were fixed in ice-cold 100% methanol for 10 min at −20° C., permeabilized in 100% acetone for 1 min at RT, blocked for 30 min in saline sodium citrate pH 7 (SSC, 4×), 3% BSA, 0.1% Triton-X and incubated with S9.6 (Kerafast #ENH001) 2 hr at RT followed by 1 h with secondary antibody. If indicated, slides were treated with RNase H (NEB #M0297L) for 4 hr at 37° C. prior to incubation with primary antibody. Stained cells were mounted with Vectashield mounting medium containing DAPI (Vector Laboratories #H-1200). Slides were imaged at 60× (immersion oil) with Nikon A1 Spectral Confocal microscope. Analysis of γH2AX and S9.6 intensity per nucleus or foci per nucleus was calculated using Nikon analysis software, where DAPI was used as a mask for the nucleus.

SMILES | nuclear γH2AX intensity (T47D cells [1]) | 53BP1 nuclear intensity (T47D cells [2]) | 53BP1 nuclear intensity (MCF-7 cells) | increase in expression of TFF1 (TFF1; 10 nM) | nuclear S9.6 staining [3] | expression of TFF1 vs control (TFF1)
C[C@]12CC[C@@H]3c4ccc(O)cc4CC[C@H]3[C@@H]1CC[C@@H]2O [E2, 17β-estradiol, reference compound] | dose-dependent increase | dose-dependent increases in 53BP1 nuclear intensity | dose-dependent increases in 53BP1 nuclear intensity | 13.1 fold | low nuclear S9.6 staining | –
CCCOC(=O)c1ccc(O)cc1 [PP, propyl parahydroxybenzoate] | significantly higher γH2AX intensity | dose-dependent increases in 53BP1 nuclear intensity | dose-dependent increases in 53BP1 nuclear intensity | – | low nuclear S9.6 staining | did not differ from the control
COc1ccc(C(=O)c2ccccc2)c(O)c1 [BP3, 2-Hydroxy-4-methoxybenzophenone] | increased γH2AX intensity | higher nuclear 53BP1 intensity over control | dose-dependent increase | – | low nuclear S9.6 staining | did not differ from the control

— US12590950B2, “Methods for predicting ER-mediated DNA damage” (UNIVERSITY OF MASSACHUSETTS, priority 2019, dated 2026)
